Key:
human TLR9 = target: T1, human TLR9 (Homo sapiens, UniProt Q9NR96); assay: TLR9 inhibition reporter assay (HEK-Blue SEAP); format: cell-based; conditions: HEK-Blue cells overexpressing human TLR9, ODN2006 5 nM, 22 hour incubation
T1 construct: host or cells: HEK-Blue cells
T1 sequence (Q9NR96 26-1032): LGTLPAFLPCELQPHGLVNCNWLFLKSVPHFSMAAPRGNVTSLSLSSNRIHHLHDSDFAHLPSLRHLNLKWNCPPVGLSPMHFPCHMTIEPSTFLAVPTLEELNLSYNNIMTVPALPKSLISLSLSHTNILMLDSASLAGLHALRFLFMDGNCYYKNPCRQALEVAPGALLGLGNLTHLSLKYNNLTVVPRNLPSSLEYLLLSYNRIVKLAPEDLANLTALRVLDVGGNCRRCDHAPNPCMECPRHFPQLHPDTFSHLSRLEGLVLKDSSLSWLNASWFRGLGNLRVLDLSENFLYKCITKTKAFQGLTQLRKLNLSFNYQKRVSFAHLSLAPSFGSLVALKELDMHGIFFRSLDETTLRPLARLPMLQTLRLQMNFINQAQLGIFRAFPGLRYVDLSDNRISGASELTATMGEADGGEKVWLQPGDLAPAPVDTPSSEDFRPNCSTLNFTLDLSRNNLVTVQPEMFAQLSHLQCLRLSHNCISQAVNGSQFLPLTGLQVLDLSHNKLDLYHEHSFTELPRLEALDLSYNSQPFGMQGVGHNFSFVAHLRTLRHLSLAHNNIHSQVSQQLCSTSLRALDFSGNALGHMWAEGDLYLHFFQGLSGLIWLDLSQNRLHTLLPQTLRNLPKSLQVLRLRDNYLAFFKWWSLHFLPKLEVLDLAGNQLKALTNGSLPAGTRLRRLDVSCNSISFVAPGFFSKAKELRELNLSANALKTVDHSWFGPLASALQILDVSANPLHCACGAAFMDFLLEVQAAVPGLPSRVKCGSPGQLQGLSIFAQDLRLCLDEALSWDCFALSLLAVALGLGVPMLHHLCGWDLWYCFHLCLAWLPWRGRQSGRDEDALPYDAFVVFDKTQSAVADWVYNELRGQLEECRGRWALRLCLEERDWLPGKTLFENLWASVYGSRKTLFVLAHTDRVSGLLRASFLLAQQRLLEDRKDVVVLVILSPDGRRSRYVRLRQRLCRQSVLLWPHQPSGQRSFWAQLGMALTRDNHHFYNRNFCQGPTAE
Outline: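 Dose–response from 0.05 nM to 50 μM was run in HEK-Blue human TLR7, TLR8 and TLR9 reporter cells. After 30 min at room temperature with compound, ligand was added (TLR7 gardiquimod 7.5 μM; TLR8 R848 15.9 μM; TLR9 ODN2006 5 nM) and SEAP measured next day, at 22 h.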

human TLR7 = target: T2, human TLR7 (Homo sapiens, UniProt Q9NYK1); assay: TLR7 inhibition reporter assay (HEK-Blue SEAP); format: cell-based; conditions: HEK-Blue cells overexpressing human TLR7, gardiquimod 7.5 μM, 22 hour incubation
T2 construct: host or cells: HEK-Blue cells
T2 sequence (Q9NYK1 27-1049): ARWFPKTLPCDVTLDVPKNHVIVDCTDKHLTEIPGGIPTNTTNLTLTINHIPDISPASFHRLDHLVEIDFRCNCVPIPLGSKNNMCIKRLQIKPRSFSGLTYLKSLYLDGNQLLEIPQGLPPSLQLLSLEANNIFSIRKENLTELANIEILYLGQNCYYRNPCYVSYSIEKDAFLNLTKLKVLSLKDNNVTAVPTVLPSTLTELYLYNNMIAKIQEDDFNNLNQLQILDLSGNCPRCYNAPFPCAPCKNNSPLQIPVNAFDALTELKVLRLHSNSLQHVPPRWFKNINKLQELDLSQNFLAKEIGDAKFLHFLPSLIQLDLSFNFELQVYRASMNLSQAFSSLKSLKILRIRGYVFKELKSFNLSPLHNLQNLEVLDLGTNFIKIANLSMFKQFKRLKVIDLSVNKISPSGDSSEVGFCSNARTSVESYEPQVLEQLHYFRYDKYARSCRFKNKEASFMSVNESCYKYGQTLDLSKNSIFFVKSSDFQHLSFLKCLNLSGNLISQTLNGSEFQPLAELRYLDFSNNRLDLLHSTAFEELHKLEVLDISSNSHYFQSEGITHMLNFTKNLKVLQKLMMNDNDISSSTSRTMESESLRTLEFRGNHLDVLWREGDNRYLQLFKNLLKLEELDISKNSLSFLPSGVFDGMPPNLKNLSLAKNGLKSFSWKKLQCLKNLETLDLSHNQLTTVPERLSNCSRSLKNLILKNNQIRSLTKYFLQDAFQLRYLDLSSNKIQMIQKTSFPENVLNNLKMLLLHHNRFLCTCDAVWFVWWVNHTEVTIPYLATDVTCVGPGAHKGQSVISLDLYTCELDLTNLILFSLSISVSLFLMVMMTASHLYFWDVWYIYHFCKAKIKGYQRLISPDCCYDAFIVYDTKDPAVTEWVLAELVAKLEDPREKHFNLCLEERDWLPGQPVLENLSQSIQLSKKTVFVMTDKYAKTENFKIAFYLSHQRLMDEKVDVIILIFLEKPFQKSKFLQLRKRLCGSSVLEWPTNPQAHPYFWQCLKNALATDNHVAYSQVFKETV
Outline: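 In this cell reporter format, test compounds at 0.05 nM-50 μM final incubate 22 h with seeded cells (TLR7 15000, TLR8 20,000 per well). SEAP read-out by HEK-Blue Detection medium yields % inhibition relative to agonist/DMSO and known-inhibitor wells.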

Row | SMILES | IC50 (human TLR9) [µM] | IC50 (human TLR7) [µM]
1 | COc1cc(-c2cc3[nH]c(=O)n(C4CCN(C5CCC5)CC4)c3cc2C(C)C)cn2ncnc12 [Example 156, 1-(1-cyclobutylpiperidin-4-yl)-6-isopropyl-5-(8-methoxy-[1,2,4]triazolo[1,5-a]pyridin-6-yl)-1,3-dihydro-2H-benzo[d]imidazol-2-one] | 23.8 | 0.0179
2 | Cc1cc2c(cc1-c1cc(C)c3ncnn3c1)[nH]c(=O)n2C1CCN(C)CC1 [Example 3, 6-methyl-5-(8-methyl-[1,2,4]triazolo[1,5-a]pyridin-6-yl)-1-(1-methylpiperidin-4-yl)-1,3-dihydro-2H-benzo[d]imidazol-2-one] | 4.64 | 0.0305
3 | CCCN1CCC[C@@H](n2c(=O)[nH]c3cc(-c4cc(OC)c5ncnn5c4)c(C(F)(F)F)cc32)C1 [Example 115, (R)-5-(8-methoxy-[1,2,4]triazolo[1,5-a]pyridin-6-yl)-1-(1-propylpiperidin-3-yl)-6-(trifluoromethyl)-1,3-dihydro-2H-benzo[d]imidazol-2-one] | 13.4 | 0.0341
4 | Cc1cc(-c2ccc3c(c2)[nH]c(=O)n3C2CCN(C(C)C)CC2)cn2ncnc12 [Example 5, 1-(1-isopropylpiperidin-4-yl)-5-(8-methyl-[1,2,4]triazolo[1,5-a]pyridin-6-yl)-1,3-dihydro-2H-benzo[d]imidazol-2-one] | 2.75 | 1.55
5 | COc1cc(-c2cc3[nH]c(=O)n([C@@H]4CCCN(C)C4)c3cc2C(F)(F)F)cn2ncnc12 [Example 114, (R)-5-(8-methoxy-[1,2,4]triazolo[1,5-a]pyridin-6-yl)-1-(1-methylpiperidin-3-yl)-6-(trifluoromethyl)-1,3-dihydro-2H-benzo[d]imidazol-2-one] | 0.618 | 0.00287
6 | CCCN1CCC[C@@H](n2c(=O)[nH]c3cc(-c4cc(OC)c5ncnn5c4)c(C(C)C)cc32)C1 [Example 134, (R)-6-isopropyl-5-(8-methoxy-[1,2,4]triazolo[1,5-a]pyridin-6-yl)-1-(1-propylpiperidin-3-yl)-1,3-dihydro-2H-benzo[d]imidazol-2-one] | 9.33 | 0.00198
7 | COc1cc(-c2cc3[nH]c(=O)n([C@H]4CCCN(CC5CC5)C4)c3cc2C(C)C)cn2ncnc12 [Example 127, (S)-1-(1-(cyclopropylmethyl)piperidin-3-yl)-6-isopropyl-5-(8-methoxy-[1,2,4]triazolo[1,5-a]pyridin-6-yl)-1,3-dihydro-2H-benzo[d]imidazol-2-one] | 15.6 | 0.0143
8 | Cc1c(-c2cc3[nH]c(=O)n([C@@H]4CCCN(C)C4)c3cc2C(C)C)cn2ncnc2c1C [Example 147, (R)-5-(7,8-dimethyl-[1,2,4]triazolo[1,5-a]pyridin-6-yl)-6-isopropyl-1-(1-methylpiperidin-3-yl)-1,3-dihydro-2H-benzo[d]imidazol-2-one] | > 50 | 0.0669
9 | COc1cc(-c2cc3[nH]c(=O)n(C4CCN(C(C)C)CC4)c3cc2C)cn2ncnc12 [Example 10, 1-(1-isopropylpiperidin-4-yl)-5-(8-methoxy-[1,2,4]triazolo[1,5-a]pyridin-6-yl)-6-methyl-1,3-dihydro-2H-benzo[d]imidazol-2-one] | 0.354 | 0.0632
10 | COc1cc(-c2cc3[nH]c(=O)n([C@@H]4CCCN(CC5CC5)C4)c3cc2C(C)C)cn2ncnc12 [Example 142, (R)-1-(1-(cyclopropylmethyl)piperidin-3-yl)-6-isopropyl-5-(8-methoxy-[1,2,4]triazolo[1,5-a]pyridin-6-yl)-1,3-dihydro-2H-benzo[d]imidazol-2-one] | 6.02 | 0.00064
11 | CCCN1CCC(n2c(=O)[nH]c3cc(-c4cc(C)c5ncnn5c4)c(C)cc32)CC1 [Example 7, 6-methyl-5-(8-methyl-[1,2,4]triazolo[1,5-a]pyridin-6-yl)-1-(1-propylpiperidin-4-yl)-1,3-dihydro-2H-benzo[d]imidazol-2-one] | 1.33 | 0.0418
12 | CCC(CC)CN1CCC[C@@H](n2c(=O)[nH]c3cc(-c4cc(OC)c5ncnn5c4)c(C(F)(F)F)cc32)C1 [Example 117, (R)-1-(1-(2-ethylbutyl)piperidin-3-yl)-5-(8-methoxy-[1,2,4]triazolo[1,5-a]pyridin-6-yl)-6-(trifluoromethyl)-1,3-dihydro-2H-benzo[d]imidazol-2-one] | 11.8 | 0.0644
13 | CCCN(CCC)[C@H]1CC[C@@H](n2c(=O)[nH]c3cc(-c4cc(OC)c5ncnn5c4)c(CC)cc32)CC1 [Example 168, 1-((1s,4s)-4-(dipropylamino)cyclohexyl)-6-ethyl-5-(8-methoxy-[1,2,4]triazolo[1,5-a]pyridin-6-yl)-1,3-dihydro-2H-benzo[d]imidazol-2-one] | 15.2 | 0.00545
14 | COc1cc(-c2cc3[nH]c(=O)n([C@@H]4CCCN(C5COC5)C4)c3cc2C(F)(F)F)cn2ncnc12 [Example 113, (R)-5-(8-methoxy-[1,2,4]triazolo[1,5-a]pyridin-6-yl)-1-(1-(oxetan-3-yl)piperidin-3-yl)-6-(trifluoromethyl)-1,3-dihydro-2H-benzo[d]imidazol-2-one] | > 50 | 0.488
15 | Cc1cc(-c2cc(C)c3ncnn3c2)cc2[nH]c(=O)n(C3CCN(CC(=O)N(C)C)CC3)c12 [Example 109, N,N-dimethyl-2-(4-(7-methyl-5-(8-methyl-[1,2,4]triazolo[1,5-a]pyridin-6-yl)-2-oxo-2,3-dihydro-1H-benzo[d]imidazol-1-yl)piperidin-1-yl)acetamide] | 14.3 | 0.0741
16 | Cc1c(-c2cc3[nH]c(=O)n([C@@H]4CCCN(C5COC5)C4)c3cc2C(C)C)cn2ncnc2c1C [Example 146, (R)-5-(7,8-dimethyl-[1,2,4]triazolo[1,5-a]pyridin-6-yl)-6-isopropyl-1-(1-(oxetan-3-yl)piperidin-3-yl)-1,3-dihydro-2H-benzo[d]imidazol-2-one] | > 50 | 0.182
17 | CCCN1CCC(n2c(=O)[nH]c3cc(-c4cc(OC)c5ncnn5c4)c(C(C)C)cc32)CC1 [Example 155, 6-isopropyl-5-(8-methoxy-[1,2,4]triazolo[1,5-a]pyridin-6-yl)-1-(1-propylpiperidin-4-yl)-1,3-dihydro-2H-benzo[d]imidazol-2-one] | 11.9 | 0.00633
